From patent publication US12298319B2, “Method for measuring alpha value of muscarinic M1 receptor positive allosteric modulators” (Takeda Pharmaceutical Company Limited, priority 2017, dated 2025) come the findings set out here.

Structures are written as SMILES. Structures can show the parent of a compound that is named as a salt.

Data set [1] relates to scopolamine-induced cognitive deficits in rats. The experiment in a line: Novel object recognition task (NORT), scopolamine-induced memory deficits. The format is in vivo, rat. The procedure: On the day before testing, Long Evans rats were allowed to habituate to the behavioral test room environment for over 1 h, and then they were allowed to habituate to the empty test box (a gray-colored polyvinyl chloride box (40×40×50 cm)) for 10 min individually. Testing was comprised of two 3-min trials called the acquisition and the retention trials. These trials were separated by a given inter-trial interval (ITI). On the testing day, in the acquisition trial, rats were allowed to explore two identical objects (A1 and A2) for 3 min. In the retention trial, rats were again allowed to explore a familiar object (A3) and a novel object (B) for 3 min. The object exploration was defined as rats' licking, sniffing or touching the object with limbs while sniffing. Leaning against the object to look upward, standing or sitting on the object was excluded. The exploration time of each object (A1, A2, A3 and B) in each trial was measured manually. Novel discrimination index (NDI) was calculated using the following equation: novel object interaction/total interaction×100(%).
The acquisition and the retention trials were separated by 4 h ITI. […] Scopolamine (0.1 mg/kg) was administered subcutaneously 30 min prior to the acquisition trial.
(§1) The acquisition and the retention trials were separated by 4 h ITI.
as §1

The test system of a further data set is rats. The data set can be described thus: Assessment of cholinergic side effects in rats. The procedure: SD Rats were placed individually into observation cages and acclimated for at least 1 h. […] The severity of diarrhea was scored as follows: 0, normal pellets; 1, wet but formed feces; 2, swollen or mucous feces; 3, severe watery diarrhea. For diarrhea, the number of rats and mice, in which more than or equal to 2 was scored, was counted. For fasciculation, the number of rats with marked fasciculation of both the upper and lower limbs was counted. For lacrimation, the number of rats, in which moderate to marked discharge (severer lacrimation than fluid around eyes) was induced, was counted. For salivation, the number of rats with severe salivation, but not just noticeably wet around mouth, was induced was counted. The maximum score during the observation was adopted.
For diarrhea, the number of rats scored more than or equal to 2 was counted. For fasciculation, the number of rats with marked fasciculation of both the upper and lower limbs was counted. For lacrimation, the number of rats in which moderate to marked discharge (severer lacrimation than fluid around eyes) was counted. For salivation, the number of rats with severe salivation, but not just noticeably wet around mouth, was counted. The maximum score during the observation was adopted. Data were presented as the number of incidence per total rats.
For diarrhea, the number of rats in which loose or mucous stool, or diarrhea was induced was counted. For fasciculation, the number of rats with marked fasciculation of both the upper and lower limbs was counted. For lacrimation, the number of rats in which moderate to marked discharge (severe lacrimation than fluid around eyes) was caused was counted. For salivation, the number of rats with severe salivation, but not just noticeably wet around mouth was counted. The maximum score during the observation was adopted. Data were presented as the number of incidence per total rats.

Data set [2] concerns layer 5 pyramidal neurons. The experiment in a line: Electrophysiology, current clamp of layer 5 pyramidal neurons in mPFC slices. In kind it is cell-based, mouse. Particulars: bath application, Compound D at 10 μM. The procedure: Experiments were performed on coronal brain slices of the medial prefrontal cortex (mPFC) from 4-week-old male C57BL/6 mice. The animals were quickly sacrificed and the brain was placed in an ice-cold NMDG artificial cerebrospinal fluid (ACSF) (in mM): NMDG, 92; KCl, 2.5; CaCl2, 0.5; NaH2PO4, 1.25; MgSO4, 6; NaHCO3, 30; glucose, 25; HEPES, 20; thiourea, 2; Na-ascorbate, 5; and Na-pyruvate, 3) (Ting J. T. et al., Methods Mol Biol. 2014; 1183:221-42). Slices were cut at a thickness of 300 μm with a vibroslicer. Slices were initially transferred to a holding chamber containing NMDG aCSF for 15 minutes at 34° C. Slices were then transferred to a room temperature holding chamber for at least 1 h containing HEPES aCSF (in mM): NMDG, 92; KCl, 2.5; CaCl2, 2; NaH2PO4, 1.25; MgSO4, 2; NaHCO3, 30; glucose, 25; HEPES, 20; thiourea, 2; Na-ascorbate, 5; and Na-pyruvate, 3). Subsequently, the slices were transferred to the recording chamber, in which they were submerged and perfused with aCSF containing the following (in mM): NaCl, 124; KCl, 5; NaH2PO4, 1.2; MgCl2, 1.5; CaCl2, 2.5; glucose, 10; and NaHCO3, 24), at a flow rate of 1-2 ml/min. All buffers were continuously bubbled and saturated with carbogen (95% O2/5% CO2). Current clamp recordings were carried out at 32-33° C. from visually identified pyramidal neurons from layer 5 using a borosilicate pipette (5-7 MΩ) filled with intracellular solution (in mM): K-gluconate, 135; KCl, 4; HEPES, 10; EGTA, 0.2; MgATP, 4; Na2GTP, 0.3; pH 7.3 with KOH). Signals were acquired using a Multiclamp 700B amplifier and a Digidata 1440A interface board (Molecular Devices Japan, Tokyo, Japan), filtered between 2 kHz, sampled at 10 kHz, and analyzed with pClamp10 software.
M1Rs are known to contribute to the three cholinergic effects in layer 5 pyramidal neurons: the resting membrane potential (RMP) and physiological responses such as the after hyperpolarization (AHP) the after depolarization (ADP) that typically follow brief periods of action potential generation (Gulledge et al., J. Neurosci. 2009 Aug. 5; 29(31): 9888-9902). To investigate effects of M1 PAMs with different n value on brain function, cholinergic excitation by Compound D and Compound C were assessed. First, the muscarinic receptor agonist carbachol ([…] for 10 min) was tested by bath application (FIG. 13-A, FIG. 13-B, FIG. 13-C).

[3] abbreviates: carbachol 10 M [sic] for 10 min.

In the case of `COc1cc2c(cc1OC)C(=O)C(CC1CCN(Cc3ccccc3)CC1)C2` (stereo not shown) [Donepezil, Donepezil hydrochloride], the “NDI in NORT, scopolamine-induced deficits” value in data set [1] (0.3 and 1 mg/kg p.o., rats, P≤0.025) is given as “significantly increased NDI”. Also, the “minimal efficacy dose in rats (cognitive improvement)” value in data set [1] (NORT, scopolamine-treated rats, p.o.) came out at 0.3 mg/kg. For the same molecule, the NDI in data set [1] (scopolamine-treated rats, 0.1 mg/kg p.o. alone, Example 28) came to 52.7%; in data set [1] (scopolamine-treated rats, donepezil 0.1 mg/kg p.o. alone, Example 29), 49.5%. Moreover, the “cholinergic side effects in addition to diarrhea” value in the data set with rats (10 mg/kg p.o., rats) was “induced salivation, myosis, and fasciculation”. The “diarrhea induction in rats (score)” value with rats (P≤0.025 at 10 and 30 mg/kg p.o.) is on record as “induced diarrhea dose-dependently”.

As to `CCN(C)C(=O)Oc1cccc([C@H](C)N(C)C)c1` [Rivastigmine, rivastigmine], in data set [1] (scopolamine-treated rats, rivastigmine 0.1 mg/kg i.p. alone, Example 31), the NDI is recorded as 53.9%.

Regarding `C[N+](C)(C)CCOC(N)=O` [Carbachol, carbachol], in data set [2] (setting [3]), the “after hyperpolarization (AHP)” value was “suppressed AHP” and the “resting membrane potential (RMP)” value is on record as “induced depolarization of the RMP”. Also, in data set [2] (carbachol for 10 min as printed), the “after depolarization (ADP)” value is given as “produced an ADP potential”.
